Patent US5336690A, “Aminosulfonyl carbamates composition and method of use to treat hypercholesterolemia and atherosclerosis” (Warner-Lambert Company, priority 1993, dated 1994)
pIC50: −log10 of the molar value. Where a name gives a salt, the structure may show the parent alone. Read-outs that look alike come from different tables or passages of the source. One block for each compound: values may come before it.

Tests used:
[1] = target: T1, acyl-CoA: cholesterol acyltransferase (ACAT) (Oryctolagus cuniculus, UniProt G1SFD9); experiment: in vitro ACAT inhibition (IAI): formation of radiolabeled cholesterol oleate from radiolabeled oleic acid in rabbit intestinal microsomes; type: biochemical
T1 construct: tissue preparation containing rabbit intestinal microsomes; from tissue; host or cells: rabbit intestinal microsomes
T1 sequence (G1SFD9 1-524): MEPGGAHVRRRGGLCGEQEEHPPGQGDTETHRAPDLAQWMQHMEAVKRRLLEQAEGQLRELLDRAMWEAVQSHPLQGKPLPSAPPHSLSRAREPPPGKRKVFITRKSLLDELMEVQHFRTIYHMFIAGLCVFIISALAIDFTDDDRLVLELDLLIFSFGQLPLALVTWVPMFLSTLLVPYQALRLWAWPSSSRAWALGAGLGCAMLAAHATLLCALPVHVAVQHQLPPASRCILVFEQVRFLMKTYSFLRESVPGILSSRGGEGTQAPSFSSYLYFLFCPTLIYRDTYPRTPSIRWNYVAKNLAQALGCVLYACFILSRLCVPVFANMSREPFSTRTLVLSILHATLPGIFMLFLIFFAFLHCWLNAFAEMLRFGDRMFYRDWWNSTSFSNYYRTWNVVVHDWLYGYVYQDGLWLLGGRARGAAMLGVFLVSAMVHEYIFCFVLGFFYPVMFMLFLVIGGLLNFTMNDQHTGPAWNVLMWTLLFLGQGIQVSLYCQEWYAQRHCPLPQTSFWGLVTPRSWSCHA
Description: The ability of representative compounds of the present invention to inhibit ACAT was measured using an in vitro test more fully described in F. J. Field and R. G. Salone, Biochemica et Biophysica 712:557-570 (1982). The test assesses the ability of a test compound to inhibit the acylation of cholesterol by oleic acid by measuring the amount of radiolabeled cholesterol oleate formed from radiolabeled oleic acid in a tissue preparation containing rabbit intestinal microsomes.

[2] = APCC in vivo screen: blood cholesterol in male Sprague-Dawley rats on high fat, high cholesterol diet with 0.5% cholic acid; conditions: single dose 30 mg/kg, high fat high cholesterol diet overnight; for % Change (mg/dl) (cholesterol): 30 mg/kg; for change in vivo at 30 mg/kg: read-out: % Change (mg/dl) (cholesterol)
Text: In one in vivo screen designated APCC, male Sprague-Dawley rats (200 to 225 g) were randomly divided into treatment groups and dosed at 4 PM with either vehicle (CMC/Tween) or suspensions of compounds in vehicle. The normal chow diet was then replaced with a high fat, high cholesterol diet with 0.5% cholic acid. The rats consumed this diet ad libitum during the night and were sacrificed at 8 AM to obtain blood samples for cholesterol analysis using standard procedures. Statistical differences between mean cholesterol values for the same vehicle were determined using analysis of variance followed by Fisher's least significant test. The compounds were dosed at 30 mg/kg unless otherwise noted.

[3] = rabbit intestinal microsomes, read-out: IAI IC50

SMILES: CCCCN(CCCC)S(=O)(=O)NC(=O)Oc1c(C(C)C)cccc1C(C)C [Example 11, 2,6-Bis(1-methylethyl)phenyl[(dibutylamino)sulfonyl]carbamate]
pIC50 [1, 3]: 5.72 | % Change (mg/dl) (cholesterol) ([2]; rat): -57 % Change (mg/dl)

SMILES: CC(C)c1cccc(C(C)C)c1OC(=O)NS(=O)(=O)N1CCN(C)CC1 [Example 53, 2,6-Bis(1-methylethyl)-phenyl ester, monohydrochloride[(4-methyl-1-piperazinyl)-sulfonyl] carbamic acid]
pIC50 [1]: < 4.00 | change in vivo at 30 mg/kg ([2]; rat): -21%

SMILES: CC(C)c1cccc(C(C)C)c1OC(=O)NS(=O)(=O)N1CCCCC1 [Example 51, 2,6-Bis(1-methylethyl)-phenyl ester(1-piperidinylsulfonyl)-carbamic acid]
pIC50 [1, 3]: < 4.00 | change in vivo at 30 mg/kg ([2]; Rattus norvegicus): -11%

SMILES: CC(C)c1cccc(C(C)C)c1OC(=O)NS(=O)(=O)N1CCOCC1 [Example 50, 2,6-Bis(1-methylethyl)-phenyl ester(4-morpholinylsulfonyl)-carbamic acid]
pIC50 [1, 3]: < 4.00 | change in vivo at 30 mg/kg ([2]; Rattus norvegicus): -14%

SMILES: Cc1cc(C(C)(C)C)c(OC(=O)NS(=O)(=O)N(C)CCc2ccccn2)c(C(C)(C)C)c1 [Example 32, 2,6-Bis(1,1-dimethylethyl)-4-methylphenyl[[[methyl 2-(2-pyridinyl)ethyl]amino]sulfonyl]carbamate, hydrochloride salt]
pIC50 [1, 3]: 4.51 | % Change (mg/dl) (cholesterol) ([2]; rat, hydrochloride salt): -10 % Change (mg/dl)

SMILES: CC(C)c1cccc(C(C)C)c1NS(=O)(=O)NC(=O)Oc1c(-c2ccccc2)cccc1-c1ccccc1 [Example 56, [1,1':3', 1"-terphenyl]-2'-yl[[[2,6-bis(1-methylethyl)phenyl]amino]sulfonyl]carbamat]
pIC50 [1, 3]: < 4.60 | change in vivo at 30 mg/kg ([2]; Rattus norvegicus): -39%

pIC50 [1, 3]: < 4.00
SMILES: COC(=O)NS(=O)(=O)Nc1c(C(C)C)cccc1C(C)C [Example 1, Methyl [[2,6-bis(1-methylethyl)phenylamino]sulfonyl]carbamate]

SMILES: Cc1cc(C(C)(C)C)c(OC(=O)NS(=O)(=O)N(C)CCc2ccccc2)c(C(C)(C)C)c1 [Example 27, 2,6-Bis(1,1-dimethylethyl)-4-methylphenyl[[methyl(2-phenylethyl)amino]sulfonyl]carbamate]
pIC50 [1, 3]: 4.72 | change in vivo at 30 mg/kg ([2]; Rattus norvegicus): -29%

SMILES: CCCCCCCCN(C)S(=O)(=O)NC(=O)Oc1c(C(C)C)cccc1C(C)C [Example 40, 2,6-Bis(1-methylethyl)phenyl[(methyloctylamino)sulfonyl]carbamate]
change in vivo at 30 mg/kg ([2]; Rattus norvegicus): -60%

SMILES: Cc1cc(C(C)(C)C)c(OC(=O)NS(=O)(=O)N(C(C)C)C(C)C)c(C(C)(C)C)c1 [Example 24, 2,6-Bis(1,1-dimethylethyl)-4-methylphenyl[[bis(1-methylethyl)amino]sulfonyl]carbamate]
change in vivo at 30 mg/kg ([2]; Rattus norvegicus): -19%
